Source: ChEMBL document CHEMBL1201862, “PubChem BioAssay data set” (2004)
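Step 1: Grow cells in 96-well plates. Step 2: Expose to compound for 48 hours at 5 concentrations. Step 3: Interpolate endpoints linearly; if unreached, use highest concentration. Here, GI50 denotes the concentration required for 50% inhibition of growth.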 Calls of active or inactive are those of the source. Rule as the data show it: active = GI50 up to about 1.1 µM and inactive = higher.

Key:
Experiment in all cases: NCI tumour cell line growth inhibition, 48 h
A549 = tested on: A549
SK-MEL-2 = tested on: SK-MEL-2
SK-OV-3 = tested on: SK-OV-3
U-251 = tested on: U-251
SNB-19 = tested on: SNB-19
RXF 393 = tested on: RXF 393
RXF 631 = tested on: RXF 631
SF-268 = tested on: SF-268
SF-295 = tested on: SF-295
OVCAR-8 = tested on: OVCAR-8
SN12C = tested on: SN12C
HCT-116 = tested on: HCT-116
UACC-257 = tested on: UACC-257
HCT-15 = tested on: HCT-15
HT-29 = tested on: HT-29
SK-MEL-28 = tested on: SK-MEL-28
MDA-N = tested on: MDA-N
BT-549 = tested on: BT-549
MCF7 = tested on: MCF7
A498 = tested on: A498

Measured: GI50

O=c1cccccc1NCCCNc1cccccc1=O
inactive: A549 > 100 µM | SK-MEL-2 > 100 µM | SK-OV-3 > 100 µM | U-251 > 100 µM | SNB-19 > 100 µM | RXF 393 > 100 µM | RXF 631 31 µM | SF-268 > 100 µM | SF-295 > 100 µM | OVCAR-8 > 100 µM | SN12C 15.9 µM | HCT-116 > 100 µM | UACC-257 > 100 µM | HT-29 88.3 µM
> 100 µM: HCT-15

CC(=O)OC1COC(N2C(=O)C(=O)c3cc(Br)c([N+](=O)[O-])cc32)C(OC(C)=O)C1OC(C)=O (stereo unspecified)
> 100 µM: HCT-15
inactive: A549 > 100 µM | SK-MEL-2 > 100 µM | SK-OV-3 96.8 µM | U-251 > 100 µM | SNB-19 > 100 µM | RXF 393 32.1 µM | RXF 631 48.5 µM | SF-268 59.2 µM | SF-295 > 100 µM | OVCAR-8 83.6 µM | SN12C > 100 µM | HCT-116 77.3 µM | UACC-257 > 100 µM | HT-29 > 100 µM | SK-MEL-28 86.5 µM

COc1ccc2oc(-c3cc4cc(OC)ccc4o3)cc2c1
> 100 µM: HCT-15
inactive: A549 > 100 µM | SK-MEL-2 > 100 µM | SK-OV-3 > 100 µM | SNB-19 > 100 µM | RXF 393 > 100 µM | RXF 631 > 100 µM | SF-268 > 100 µM | SF-295 > 100 µM | OVCAR-8 > 100 µM | SN12C > 100 µM | UACC-257 > 100 µM | SK-MEL-28 > 100 µM

CCCCN1C(=O)C2c3[nH]c4ccccc4c3C3CCCCC3C2C1=O.CCCCN1C(=O)C2c3[nH]c4ccccc4c3[C@@H]3CCCCC3C2C1=O (stereo unspecified)
inactive: A549 13.9 µM | SK-OV-3 22.3 µM | U-251 16.4 µM | SNB-19 23.4 µM | RXF 631 13.7 µM | SF-268 17.9 µM | SF-295 7.93 µM | OVCAR-8 11.8 µM | SN12C 35.9 µM | HCT-116 9.42 µM | HT-29 28.8 µM | SK-MEL-28 29.6 µM
29.4 µM: HCT-15

O/N=C(\c1nc2ccc(Cl)cc2nc1O)C(O)c1ccc(Cl)cc1Cl (stereo unspecified)
inactive: A549 > 100 µM | SK-OV-3 > 100 µM | U-251 > 100 µM | SNB-19 > 100 µM | RXF 393 > 100 µM | RXF 631 > 100 µM | SF-268 > 100 µM | SF-295 > 100 µM | OVCAR-8 > 100 µM | SN12C > 100 µM | HCT-116 > 100 µM | UACC-257 > 100 µM | HT-29 > 100 µM | SK-MEL-28 > 100 µM
> 100 µM: HCT-15

Cn1c2ccccc2c2ccc3c(c21)C(=O)C=CC3=O
4.56 µM: HCT-15
inactive: A549 26.2 µM | SK-MEL-2 15.6 µM | SK-OV-3 17.1 µM | MDA-N 6.82 µM | U-251 11.4 µM | SNB-19 26.5 µM | RXF 393 2.47 µM | BT-549 6.98 µM | SF-268 14.8 µM | MCF7 3.3 µM | SF-295 24.7 µM | OVCAR-8 7.03 µM | A498 > 45.2 µM | SN12C 9.93 µM | HCT-116 4.29 µM | UACC-257 9.48 µM | HT-29 10.5 µM | SK-MEL-28 11.1 µM

C=CCCCC1(C)CCNC1=S (stereo unspecified)
> 100 µM: HCT-15
inactive: A549 > 100 µM | SK-MEL-2 > 100 µM | SK-OV-3 > 100 µM | MDA-N > 100 µM | U-251 > 100 µM | SNB-19 > 100 µM | RXF 393 > 100 µM | BT-549 > 100 µM | SF-268 > 100 µM | MCF7 > 100 µM | SF-295 > 100 µM | OVCAR-8 > 100 µM | A498 > 100 µM | SN12C > 100 µM | HCT-116 > 100 µM | UACC-257 > 100 µM | HT-29 > 100 µM | SK-MEL-28 > 100 µM

CC1=C(C(=O)OCCO[N+](=O)[O-])C(c2ccccc2[N+](=O)[O-])C(C(=O)OC(C)C)=C(C)N1 (stereo unspecified)
16.6 µM: HCT-15
inactive: A549 16.3 µM | SK-MEL-2 15.6 µM | SK-OV-3 21.2 µM | MDA-N 17.2 µM | U-251 16.2 µM | SNB-19 18 µM | RXF 393 14.3 µM | BT-549 16.5 µM | SF-268 20.4 µM | MCF7 19.9 µM | SF-295 15.7 µM | OVCAR-8 22.5 µM | A498 20.7 µM | SN12C 17.6 µM | HCT-116 15.4 µM | UACC-257 15.3 µM | HT-29 15.7 µM | SK-MEL-28 16.5 µM

NCCNc1nc(N2CCCC2)c2nc(Cl)c(NCc3ccccc3)nc2n1
1.95 µM: HCT-15
inactive: A549 1.71 µM | SK-MEL-2 1.79 µM | SK-OV-3 1.82 µM | MDA-N 1.67 µM | U-251 1.63 µM | SNB-19 1.83 µM | RXF 393 1.4 µM | BT-549 1.98 µM | SF-268 1.96 µM | MCF7 1.73 µM | SF-295 1.86 µM | OVCAR-8 1.76 µM | A498 1.83 µM | SN12C 1.52 µM | HCT-116 1.49 µM | UACC-257 1.9 µM | HT-29 1.95 µM | SK-MEL-28 1.79 µM

CC(C)OC(=O)c1ccc(CCC2=CC(=O)C=CC2=O)cc1
inactive: A549 25.4 µM | SK-MEL-2 19.1 µM | SK-OV-3 34.8 µM | MDA-N 10.4 µM | U-251 15.6 µM | SNB-19 21.6 µM | RXF 393 11.8 µM | BT-549 5.25 µM | SF-268 13.7 µM | MCF7 15.5 µM | SF-295 29.4 µM | OVCAR-8 7.21 µM | A498 23 µM | SN12C 11.3 µM | HCT-116 11.8 µM | UACC-257 12.1 µM | HT-29 18.1 µM | SK-MEL-28 13.5 µM
8.81 µM: HCT-15

c1ccc([P+](c2ccccc2)(c2ccccc2)C2c3ccccc3-c3ccccc32)cc1
3.01 µM: HCT-15
active: MDA-N 0.895 µM | HCT-116 0.473 µM | HT-29 0.74 µM
inactive: A549 2.88 µM | SK-MEL-2 1.71 µM | SK-OV-3 1.33 µM | U-251 1.57 µM | SNB-19 2.79 µM | RXF 393 1.86 µM | BT-549 2.94 µM | SF-268 2.77 µM | MCF7 2.25 µM | SF-295 1.75 µM | OVCAR-8 2.81 µM | A498 1.75 µM | SN12C 2.36 µM | UACC-257 2.31 µM | SK-MEL-28 3.01 µM

O=C(CCCCCCCCC(=O)NN1C(=O)/C(=C\c2ccc(O)c(O)c2)SC1c1c(O)ccc2ccccc12)NN1C(=O)C(=Cc2ccc(O)c(O)c2)SC1c1c(O)ccc2ccccc12 (stereo unspecified)
inactive: A549 6.95 µM | SK-MEL-2 5.97 µM | SK-OV-3 6.28 µM | MDA-N > 41.7 µM | U-251 12.5 µM | SNB-19 22.6 µM | RXF 393 10 µM | BT-549 > 36.9 µM | SF-268 6.4 µM | MCF7 10.1 µM | SF-295 3.86 µM | OVCAR-8 4.49 µM | A498 22.8 µM | SN12C 27.2 µM | HCT-116 4.05 µM | UACC-257 10.7 µM | HT-29 10.8 µM | SK-MEL-28 10 µM
4.66 µM: HCT-15

CC(C(=O)[O-])S(=O)(=O)O.CCc1c2cc(OC)c(OC)cc2cc2c3cc(OC)c(OC)cc3cc[n+]12
38.4 µM: HCT-15
active: SF-268 1.11 µM
inactive: A549 47.4 µM | SK-MEL-2 25.6 µM | SK-OV-3 41.6 µM | MDA-N 9.89 µM | U-251 6.27 µM | SNB-19 3.94 µM | RXF 393 65.2 µM | BT-549 3.81 µM | MCF7 9.89 µM | SF-295 67.3 µM | OVCAR-8 20 µM | A498 53.1 µM | SN12C 6.62 µM | HCT-116 17.8 µM | UACC-257 13.3 µM | HT-29 45.2 µM | SK-MEL-28 21.7 µM

COc1ccc2c(c1)-c1c(c3ccccc3n1CCN1CCCCC1)CC2
inactive: A549 10.6 µM | SK-MEL-2 5.73 µM | SK-OV-3 24.2 µM | MDA-N 23.7 µM | U-251 19.5 µM | SNB-19 23.7 µM | RXF 393 1.57 µM | BT-549 23.1 µM | SF-268 17.4 µM | MCF7 7.24 µM | SF-295 5.52 µM | OVCAR-8 4.43 µM | A498 34 µM | SN12C 22.4 µM | HCT-116 13.1 µM | UACC-257 22.4 µM | HT-29 10.3 µM | SK-MEL-28 30.2 µM
13.3 µM: HCT-15

Cn1ncc2c(NCCc3ccccc3)nc(Cl)nc21
inactive: A549 20.4 µM | SK-MEL-2 10.7 µM | SK-OV-3 19.5 µM | MDA-N 23.2 µM | U-251 30.2 µM | SNB-19 44.9 µM | RXF 393 17.1 µM | BT-549 23.5 µM | SF-268 38.2 µM | MCF7 30 µM | SF-295 16.4 µM | OVCAR-8 27.2 µM | A498 17.7 µM | SN12C 44.6 µM | HCT-116 27.8 µM | UACC-257 2.48 µM | HT-29 14.7 µM | SK-MEL-28 28.7 µM
25.4 µM: HCT-15

COc1cccc2c(Nc3ccc(S(=O)(=O)N=C(N)N)cc3)c3ccc([N+](=O)[O-])cc3nc12
30 µM: HCT-15
inactive: A549 20.2 µM | SK-MEL-2 14.3 µM | SK-OV-3 28.6 µM | MDA-N 17.6 µM | U-251 5.61 µM | SNB-19 12.6 µM | RXF 393 40.4 µM | BT-549 13.6 µM | SF-268 5.62 µM | MCF7 4.09 µM | SF-295 29.4 µM | OVCAR-8 15.7 µM | A498 19.1 µM | SN12C 30 µM | HCT-116 16.6 µM | UACC-257 17.4 µM | HT-29 32.8 µM | SK-MEL-28 35.2 µM
